Reference: patent publication US6590140B1, “Metal-regulated transporters and uses therefor” (Trustees of Dartmouth College, priority 1996, dated 2003)

Test system: wild type (DY1457) cells
Assay: Zinc-limited growth, wild type yeast
Type: cell-based, Saccharomyces cerevisiae
Conditions: LZM, 16 hours
Experimental: Strains used were DY1457 (MATα ade6 can1 his3 leu2 trp1 ura3) and ZHY1 (MaTα ade6 can1 his3 leu2 trp1 ura3 zrt1:: LEU2). Yeast were grown in standard culture media (SD, YPD) (Eide, D., Davis-Kaplan S., Jordan, I., Sipe, D., and Kaplan, J. (199: 2) J. Biol. Chem. 267, 20774-20781) supplemented with necessary auxotrophic requirements and either 2% glucose or 2% galactose. A zinc-limiting medium (LZM) was prepared in the same manner as LIM (Eide and Guarenete (1992) J. Gen. Microbiol. 138:347-354) except that […]. Cell number in liquid cultures was determined by measuring the optical density of cell suspensions at 600 nm (A600) and converting to cell number with a standard curve.
Strains used were DY1457 (MATα ade6 can1 his3 leu2 trp1 ura3), ZHY1 (AMTα ade6 can1 his3 leu2 trp1 ura3 zrt1::LEU2), ZHY2 (MATα ade6 can1 his3 leu2 trp1 ura3 zrt2::HIS3), and ZHY3 (MATα ade6 can1 his3 leu2 trp1 ura3 zrt1::LEU2 zrt2::HIS3). […] The concentrations of free (i.e. unchelated) zinc were calculated using MAXCHELATOR software (Chris Patton, Stanford University). Cell number in liquid cultures was determined by measuring the absorbance of cell suspensions at 600 nm (OD600) and converting to cell number with a standard curve. […]

For [Zn+2] [zinc], the “calculated free zinc [Zn]F sufficient for maximum growth yield” value was roughly 6 pM and the “total zinc sufficient for maximum number of cell divisions” value was 10 µM.
